Data: PubChem BioAssay AID1963963 (Molecular Pharmacology Branch, DTP, NCI, 2024)

Test system: 958667-338-R-J2-PDC tumor spheroids viability
Assay: Anticancer human tumor 958667-338-R-J2-PDC patient-derived colon adenocarcinoma cell line growth inhibition [PI3K]
Conditions: spheroids with HUVEC and MSC; for IC50: curve of first compound; for viability, T/C: stronger effect = lower value; active = viability on the fitted dose curve at most 10% of control; inactive = the rest
Summary of the method: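 Three cell types, namely tumor cells, endothelial cells and mesenchymal stem cells, formed each spheroid. Combinations with four PI3K inhibitors were screened at clinically achievable concentrations decreasing by half-log, and spheroid viability was recorded.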

[1] = second compound 0.0316 µM, first compound 0.0316 µM
[2] = second compound 0.0316 µM, first compound 0.1 µM
[3] = second compound 0.0316 µM, first compound 0.316 µM
[4] = second compound 0.0316 µM, first compound 1 µM
[5] = second compound 0.0316 µM, first compound 3.16 µM
[6] = second compound 0.0316 µM, first compound 10 µM
[7] = second compound 0.1 µM, first compound 0.0316 µM
[8] = second compound 0.1 µM, first compound 0.1 µM
[9] = second compound 0.1 µM, first compound 0.316 µM
[10] = second compound 0.1 µM, first compound 1 µM
[11] = second compound 0.1 µM, first compound 3.16 µM
[12] = second compound 0.1 µM, first compound 10 µM
[13] = second compound 0.316 µM, first compound 0.0316 µM
[14] = second compound 0.316 µM, first compound 0.1 µM
[15] = second compound 0.316 µM, first compound 0.316 µM
[16] = second compound 0.316 µM, first compound 1 µM
[17] = second compound 0.316 µM, first compound 3.16 µM
[18] = second compound 0.316 µM, first compound 10 µM
[19] = second compound 1 µM, first compound 0.0316 µM
[20] = second compound 1 µM, first compound 0.1 µM
[21] = second compound 1 µM, first compound 0.316 µM
[22] = second compound 1 µM, first compound 1 µM
[23] = second compound 1 µM, first compound 3.16 µM
[24] = second compound 1 µM, first compound 10 µM
[25] = second compound 3.16 µM, first compound 0.0316 µM
[26] = second compound 3.16 µM, first compound 0.1 µM
[27] = second compound 3.16 µM, first compound 0.316 µM
[28] = second compound 3.16 µM, first compound 1 µM
[29] = second compound 3.16 µM, first compound 3.16 µM
[30] = second compound 3.16 µM, first compound 10 µM
[31] = second compound 10 µM, first compound 0.0316 µM
[32] = second compound 10 µM, first compound 0.1 µM
[33] = second compound 10 µM, first compound 0.316 µM
[34] = second compound 10 µM, first compound 1 µM
[35] = second compound 10 µM, first compound 3.16 µM
[36] = second compound 10 µM, first compound 10 µM
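Note: spheroids exposed to compounds for seven days before readout.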

C#Cc1c(F)ccc2cc(O)cc(-c3ncc4c(N5CC6CCC(C5)N6)nc(OCC56CCCN5CC(F)C6)nc4c3F)c12 (stereo unspecified) + CC(Nc1ncnc2nc[nH]c12)c1cc2cccc(Cl)c2c(=O)n1-c1ccccc1
7.83 µM: IC50 (second compound 3.16 µM)
inactive: viability, T/C [1] 104% | viability, T/C [2] 99.2% | viability, T/C [3] 109% | viability, T/C [4] 84.9% | viability, T/C [5] 97.5% | viability, T/C [6] 69.7% | viability, T/C [7] 102% | viability, T/C [8] 109% | viability, T/C [9] 86.8% | viability, T/C [10] 104% | viability, T/C [11] 85.2% | viability, T/C [12] 77.5% | viability, T/C [13] 84% | viability, T/C [14] 99.3% | viability, T/C [15] 93.5% | viability, T/C [16] 92.8% | viability, T/C [17] 93.9% | viability, T/C [18] 63.5% | viability, T/C [19] 77.4% | viability, T/C [20] 101% | viability, T/C [21] 90.9% | viability, T/C [22] 84.8% | viability, T/C [23] 106% | viability, T/C [24] 65.1% | viability, T/C [25] 91.4% | viability, T/C [26] 94.2% | viability, T/C [27] 85.3% | viability, T/C [28] 76.5% | viability, T/C [29] 73.2% | viability, T/C [30] 43.6% | viability, T/C [31] 86.3% | viability, T/C [32] 83.2% | viability, T/C [33] 73.1% | viability, T/C [34] 86.9% | viability, T/C [35] 71.5% | viability, T/C [36] 46.4%
8.56 µM: IC50 (second compound 10 µM)
> 10 µM: IC50 (second compound 0.0316 µM) | IC50 (second compound 0.1 µM) | IC50 (second compound 0.316 µM) | IC50 (second compound 1 µM)

CC(Cn1ccc(-c2ccc(C#N)c(Cl)c2)n1)NC(=O)c1cc(C(C)O)[nH]n1 (stereo unspecified) + CC(Nc1ncnc2nc[nH]c12)c1cc2cccc(Cl)c2c(=O)n1-c1ccccc1
> 10 µM: IC50 (second compound 0.0316 µM) | IC50 (second compound 0.1 µM) | IC50 (second compound 0.316 µM) | IC50 (second compound 1 µM) | IC50 (second compound 3.16 µM) | IC50 (second compound 10 µM)
inactive: viability, T/C [1] 85.4% | viability, T/C [2] 105% | viability, T/C [3] 85.5% | viability, T/C [4] 106% | viability, T/C [5] 114% | viability, T/C [6] 86.5% | viability, T/C [7] 100% | viability, T/C [8] 97.5% | viability, T/C [9] 99.9% | viability, T/C [10] 99.2% | viability, T/C [11] 99.4% | viability, T/C [12] 79.1% | viability, T/C [13] 90.7% | viability, T/C [14] 109% | viability, T/C [15] 121% | viability, T/C [16] 108% | viability, T/C [17] 85.8% | viability, T/C [18] 109% | viability, T/C [19] 119% | viability, T/C [20] 115% | viability, T/C [21] 99.8% | viability, T/C [22] 112% | viability, T/C [23] 101% | viability, T/C [24] 73.7% | viability, T/C [25] 107% | viability, T/C [26] 105% | viability, T/C [27] 121% | viability, T/C [28] 82.8% | viability, T/C [29] 101% | viability, T/C [30] 98.5% | viability, T/C [31] 77.2% | viability, T/C [32] 98.7% | viability, T/C [33] 86.7% | viability, T/C [34] 84.1% | viability, T/C [35] 91.9% | viability, T/C [36] 97.7%

CC1(C)CCC(Nc2ncc(C(F)(F)F)c(-c3c[nH]c4c(P(C)(C)=O)c(C#N)ccc34)n2)CN1 (stereo unspecified) + CC(Nc1ncnc2nc[nH]c12)c1cc2cccc(Cl)c2c(=O)n1-c1ccccc1
4.17 µM: IC50 (second compound 0.316 µM)
inactive: viability, T/C [1] 101% | viability, T/C [2] 94.6% | viability, T/C [3] 82.8% | viability, T/C [4] 69% | viability, T/C [5] 70.1% | viability, T/C [6] 25.9% | viability, T/C [7] 113% | viability, T/C [8] 72.1% | viability, T/C [9] 72% | viability, T/C [10] 62.5% | viability, T/C [11] 64.9% | viability, T/C [12] 20% | viability, T/C [13] 98% | viability, T/C [14] 106% | viability, T/C [15] 80.4% | viability, T/C [16] 74% | viability, T/C [17] 63.9% | viability, T/C [18] 24.6% | viability, T/C [19] 82.4% | viability, T/C [20] 103% | viability, T/C [21] 90.6% | viability, T/C [22] 65.4% | viability, T/C [23] 54.5% | viability, T/C [24] 30.8% | viability, T/C [25] 117% | viability, T/C [26] 96.1% | viability, T/C [27] 86% | viability, T/C [28] 64.1% | viability, T/C [29] 60.8% | viability, T/C [30] 21.8% | viability, T/C [31] 84.6% | viability, T/C [32] 69.1% | viability, T/C [33] 84.2% | viability, T/C [34] 66.3% | viability, T/C [35] 49.6% | viability, T/C [36] 14.2%
3.03 µM: IC50 (second compound 3.16 µM)
3 µM: IC50 (second compound 10 µM)
4.48 µM: IC50 (second compound 0.0316 µM)
3.12 µM: IC50 (second compound 1 µM)
2.34 µM: IC50 (second compound 0.1 µM)
